According to patent publication US10793580B2, “Substituted pyrazoloazepin-8-ones and their use as phosphodiesterase inhibitors” (LEO Pharma A/S, priority 2016, dated 2020):

Molecular target: human PDE4D catalytic domain (Homo sapiens (Human), UniProt Q08499)
Test: PDE4 Assay (TR-FRET, FAM-cAMP cleavage)
Format: biochemical
Settings: human PDE4D catalytic domain (UniProt Q08499 [S380-L740]); 50% inhibition of substrate cleavage; read-out: PDE4 IC50 range
Protocol: The human PDE4D catalytic domain (UniProt no. Q08499 [S380-L740]) was incubated with a mixture of non-labelled cAMP (cyclic adenosine monophosphate) and fluorescein amidite (FAM) conjugated cAMP and titrated test or reference Compound. Following brief incubation the enzymatic reaction was stopped by addition of binding buffer containing nanoparticles with immobilized trivalent metal ions capable of binding 1) AMP phospho groups and 2) terbium (Tb) donor fluorophores. Subsequent excitation of the Tb donor triggers time-resolved FRET to adjacent FAM acceptor molecules resulting in light emission. In the presence of a PDE4 inhibitor, AMP generation was reduced resulting in a lower fluorescence signal. The cAMP phosphodiester is not bound by the detection system.
The results were calculated as the molar concentrations resulting in 50% inhibition of the substrate cleavage compared to controls samples, and are expressed as a range of IC50 (nM).

Sequence of human PDE4D catalytic domain (Q08499 380-740): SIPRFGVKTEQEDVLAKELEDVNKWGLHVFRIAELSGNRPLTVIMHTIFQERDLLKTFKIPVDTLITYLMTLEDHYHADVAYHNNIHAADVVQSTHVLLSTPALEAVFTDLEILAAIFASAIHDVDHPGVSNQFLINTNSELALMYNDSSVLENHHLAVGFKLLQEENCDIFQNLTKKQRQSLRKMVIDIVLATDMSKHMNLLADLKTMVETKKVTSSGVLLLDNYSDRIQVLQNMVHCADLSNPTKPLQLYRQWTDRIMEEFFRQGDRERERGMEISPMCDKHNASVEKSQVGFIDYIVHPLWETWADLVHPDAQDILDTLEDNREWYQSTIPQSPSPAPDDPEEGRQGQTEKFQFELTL

CCn1nc(CCCOC(=O)c2cccc(S(C)(=O)=O)c2)c2c1C(=O)NCC1(CCOCC1)C2 [Example 63, 3-(1-ethyl-8-oxo-spiro[6,7-dihydro-4H-pyrazolo[3,4-c]azepine-5,4′-tetrahydropyran]-3-yl)propyl 3-methylsulfonylbenzoate]
IC50: < 100 nM

CCn1nc(CCCOC(=O)c2ccccc2S(C)(=O)=O)c2c1C(=O)NCC1(CCOCC1)C2 [Example 64, 3-(1-ethyl-8-oxo-spiro[6,7-dihydro-4H-pyrazolo[3,4-c]azepine-5,4′-tetrahydropyran]-3-yl)propyl 2-methylsulfonylbenzoate]
IC50: < 100 nM

CCn1nc(CCCOC(=O)c2ccc(S(N)(=O)=O)cc2)c2c1C(=O)NCC1(CCOCC1)C2 [Example 65, 3-(1-ethyl-8-oxo-spiro[6,7-dihydro-4H-pyrazolo[3,4-c]azepine-5,4′-tetrahydropyran]-3-yl)propyl 4-sulfamoylbenzoate]
IC50: < 100 nM

CCn1nc(CCCOC(=O)c2cccc(S(N)(=O)=O)c2)c2c1C(=O)NCC1(CCOCC1)C2 [Example 66, 3-(1-ethyl-8-oxo-spiro[6,7-dihydro-4H-pyrazolo[3,4-c]azepine-5,4′-tetrahydropyran]-3-yl)propyl 3-sulfamoylbenzoate]
IC50: < 100 nM

CCn1nc(CCCOC(=O)c2cc(C(F)(F)F)ccc2C)c2c1C(=O)NCC1(CCOCC1)C2 [Example 67, 3-(1-ethyl-8-oxo-spiro[6,7-dihydro-4H-pyrazolo[3,4-c]azepine-5,4′-tetrahydro-pyran]-3-yl)propyl 2-methyl-5-(trifluoromethyl)benzoate]
IC50: < 100 nM

CCn1nc(CCCOC(=O)c2cccc(C(F)(F)F)c2C)c2c1C(=O)NCC1(CCOCC1)C2 [Example 68, 3-(1-ethyl-8-oxo-spiro[6,7-dihydro-4H-pyrazolo[3,4-c]azepine-5,4′-tetrahydro-pyran]-3-yl)propyl 2-methyl-3-(trifluoromethyl)benzoate]
IC50: < 100 nM

CCn1nc(CCCOC(=O)c2ccc(C(F)(F)F)cc2F)c2c1C(=O)NCC1(CCOCC1)C2 [Example 70, 3-(1-ethyl-8-oxo-spiro[6,7-dihydro-4H-pyrazolo[3,4-c]azepine-5,4′-tetrahydro-pyran]-3-yl)propyl 2-fluoro-4-(trifluoromethyl)benzoate]
IC50: < 100 nM

CCn1nc(CCCOC(=O)c2ccc(F)cc2C(F)(F)F)c2c1C(=O)NCC1(CCOCC1)C2 [Example 71, 3-(1-ethyl-8-oxo-spiro[6,7-dihydro-4H-pyrazolo[3,4-c]azepine-5,4′-tetrahydro-pyran]-3-yl)propyl 4-fluoro-2-(trifluoromethyl)benzoate]
IC50: < 100 nM

CCn1nc(CCCOC(=O)c2cc(F)cc(C(F)(F)F)c2)c2c1C(=O)NCC1(CCOCC1)C2 [Example 72, 3-(1-ethyl-8-oxo-spiro[6,7-dihydro-4H-pyrazolo[3,4-c]azepine-5,4′-tetrahydro-pyran]-3-yl)propyl 3-fluoro-5-(trifluoromethyl)benzoate]
IC50: < 100 nM

CCn1nc(CCCOC(=O)c2cc(C(F)(F)F)ccc2F)c2c1C(=O)NCC1(CCOCC1)C2 [Example 73, 3-(1-ethyl-8-oxo-spiro[6,7-dihydro-4H-pyrazolo[3,4-c]azepine-5,4′-tetrahydro-pyran]-3-yl)propyl 2-fluoro-5-(trifluoromethyl)benzoate]
IC50: < 100 nM

CCn1nc(CCCOC(=O)c2cc(F)ccc2C(F)(F)F)c2c1C(=O)NCC1(CCOCC1)C2 [Example 74, 3-(1-ethyl-8-oxo-spiro[6,7-dihydro-4H-pyrazolo[3,4-c]azepine-5,4′-tetrahydro-pyran]-3-yl)propyl 5-fluoro-2-(trifluoromethyl)benzoate]
IC50: < 100 nM

CCn1nc(CCCOC(=O)c2ccc(C(F)(F)F)c(F)c2)c2c1C(=O)NCC1(CCOCC1)C2 [Example 75, 3-(1-ethyl-8-oxo-spiro[6,7-dihydro-4H-pyrazolo[3,4-c]azepine-5,4′-tetrahydro-pyran]-3-yl)propyl 3-fluoro-4-(trifluoromethyl)benzoate]
IC50: < 100 nM
